How the values were obtained:
galium = test: Test D preemergence; assay type: in vivo, Galium aparine; details: Galium, pre-emergence
How it was run: (§1)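 Visual rating vs untreated controls, 0 = no effect, 100 = complete control, taken 7–21 d after treatment. Pre: silt loam soil. Post: potting medium, plants 2–18 cm, 1–4 leaf. Formulation: non-phytotoxic solvent mix + surfactant.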

field poppy [1] = test: Test D preemergence; assay type: in vivo, Papaver rhoeas; details: Papaver rhoeas, pre-emergence, scale 0-100, read-out: Plant response rating, Field Poppy
How it was run: as §1

pigweed = test: Test D preemergence; assay type: in vivo, Amaranthus retroflexus; details: Amaranthus retroflexus, pre-emergence
How it was run: as §1

spring barley = test: Test D preemergence; assay type: in vivo, Hordeum vulgare; details: Hordeum vulgare, pre-emergence
How it was run: as §1

winter barley = test: Test D preemergence; assay type: in vivo, Hordeum vulgare; details: Hordeum vulgare, pre-emergence
How it was run: as §1

canarygrass = test: Test D postemergence; assay type: in vivo, Phalaris minor; details: Phalaris minor, post-emergence
How it was run: as §1

field poppy [2] = test: Test D postemergence; assay type: in vivo, Papaver rhoeas; details: Papaver rhoeas, post-emergence
How it was run: as §1

oilseed rape = test: Test D postemergence; assay type: in vivo, Brassica napus; details: Brassica napus, post-emergence
How it was run: as §1

windgrass = test: Test D postemergence; assay type: in vivo, Apera spica-venti; details: Apera spica-venti, post-emergence
How it was run: as §1

cocklebur = test: Test E preemergence; assay type: in vivo, Xanthium strumarium; details: 62 g ai/ha, scale 0 to 100 (0 no effect, 100 complete control)
How it was run: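 Test chemicals formulated in a non-phytotoxic solvent mixture containing a surfactant were applied preemergence to seeds in silt loam soil or postemergence to plants at the 1- to 4-leaf stage in potting mix. After 14 to 21 days in a greenhouse, injury was visually rated against controls on a 0-100 scale (0 = no effect, 100 = complete control).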

FC(F)(F)c1cnn(-c2ccccc2Oc2ncc(Br)cn2)c1 [Compound 18, 5-bromo-2-[2-[4-(trifluoromethyl)-1H-pyrazol-1-yl]phenoxy]pyrimidine]
pest or weed control at 16 g/ha (galium; 16 g ai/ha, scale 0 (no effect) to 100 (complete control), read-out: Plant response rating, Galium): 0% | pest or weed control at 31 g/ha (galium; 31 g ai/ha, scale 0-100, read-out: Plant response rating, Galium): 15% | pest or weed control at 62 g/ha (galium; 62 g ai/ha, scale 0-100, read-out: Plant response rating, Galium): 80% | pest or weed control at 125 g/ha (galium; 125 g ai/ha, scale 0-100, read-out: Plant response rating, Galium): 100% | pest or weed control at 250 g/ha (galium; 250 g ai/ha, scale 0-100, read-out: Plant response rating, Galium): 100% | pest or weed control at 31 g/ha (field poppy [1]; 31 g ai/ha): 70% | pest or weed control at 62 g/ha (field poppy [1]; 62 g ai/ha): 85% | pest or weed control at 125 g/ha (field poppy [1]; 125 g ai/ha): 95% | pest or weed control at 250 g/ha (field poppy [1]; 250 g ai/ha): 100% | pest or weed control at 16 g/ha (pigweed; 16 g ai/ha, scale 0 (no effect) to 100 (complete control), read-out: Plant response rating, Pigweed): 30% | pest or weed control at 31 g/ha (pigweed; 31 g ai/ha, scale 0 (no effect) to 100 (complete control), read-out: Plant response rating, Pigweed): 100% | pest or weed control at 62 g/ha (pigweed; 62 g ai/ha, scale 0-100, read-out: Plant response rating, Pigweed): 100% | pest or weed control at 125 g/ha (pigweed; 125 g ai/ha, scale 0-100, read-out: Plant response rating, Pigweed): 100% | pest or weed control at 250 g/ha (pigweed; 250 g ai/ha, scale 0-100, read-out: Plant response rating, Pigweed): 100% | plant injury at 16 g/ha (spring barley; 16 g ai/ha, scale 0 (no effect) to 100 (complete control), read-out: Plant response rating, Barley, Spring): 0% | plant injury at 31 g/ha (spring barley; 31 g ai/ha, scale 0-100, read-out: Plant response rating, Barley, Spring): 5% | plant injury at 62 g/ha (spring barley; 62 g ai/ha, scale 0-100, read-out: Plant response rating, Barley, Spring): 5% | plant injury at 125 g/ha (spring barley; 125 g ai/ha, scale 0-100, read-out: Plant response rating, Barley, Spring): 0% | plant injury at 250 g/ha (spring barley; 250 g ai/ha, scale 0-100, read-out: Plant response rating, Barley, Spring): 30% | plant injury at 16 g/ha (winter barley; 16 g ai/ha, scale 0 (no effect) to 100 (complete control), read-out: Plant response rating, Barley, Winter): 0% | plant injury at 31 g/ha (winter barley; 31 g ai/ha, scale 0-100, read-out: Plant response rating, Barley, Winter): 10% | plant injury at 62 g/ha (winter barley; 62 g ai/ha, scale 0-100, read-out: Plant response rating, Barley, Winter): 15% | plant injury at 125 g/ha (winter barley; 125 g ai/ha, scale 0-100, read-out: Plant response rating, Barley, Winter): 15% | plant injury at 250 g/ha (winter barley; 250 g ai/ha, scale 0-100, read-out: Plant response rating, Barley, Winter): 25% | pest or weed control at 16 g/ha (canarygrass; 16 g ai/ha, scale 0-100, read-out: Plant response rating, Canarygrass): 10% | pest or weed control at 31 g/ha (canarygrass; 31 g ai/ha, scale 0 to 100 (0 no effect, 100 complete control), read-out: Plant response rating, Canarygrass): 15% | pest or weed control at 62 g/ha (canarygrass; 62 g ai/ha, scale 0 to 100 (0 no effect, 100 complete control), read-out: Plant response rating, Canarygrass): 15% | pest or weed control at 125 g/ha (canarygrass; 125 g ai/ha, scale 0 to 100 (0 no effect, 100 complete control), read-out: Plant response rating, Canarygrass): 20% | pest or weed control at 250 g/ha (canarygrass; 250 g ai/ha, scale 0 to 100 (0 no effect, 100 complete control), read-out: Plant response rating, Canarygrass): 35% | pest or weed control at 16 g/ha (field poppy [2]; 16 g ai/ha, scale 0-100, read-out: Plant response rating, Field Poppy): 80% | pest or weed control at 31 g/ha (field poppy [2]; 31 g ai/ha, scale 0 to 100 (0 no effect, 100 complete control), read-out: Plant response rating, Field Poppy): 75% | pest or weed control at 62 g/ha (field poppy [2]; 62 g ai/ha, scale 0 to 100 (0 no effect, 100 complete control), read-out: Plant response rating, Field Poppy): 75% | pest or weed control at 125 g/ha (field poppy [2]; 125 g ai/ha, scale 0 to 100 (0 no effect, 100 complete control), read-out: Plant response rating, Field Poppy): 100% | pest or weed control at 250 g/ha (field poppy [2]; 250 g ai/ha, scale 0 to 100 (0 no effect, 100 complete control), read-out: Plant response rating, Field Poppy): 100% | plant injury at 16 g/ha (oilseed rape; 16 g ai/ha, scale 0-100, read-out: Plant response rating, Oilseed Rape): 35% | plant injury at 31 g/ha (oilseed rape; 31 g ai/ha, scale 0 to 100 (0 no effect, 100 complete control), read-out: Plant response rating, Oilseed Rape): 70% | plant injury at 62 g/ha (oilseed rape; 62 g ai/ha, scale 0 to 100 (0 no effect, 100 complete control), read-out: Plant response rating, Oilseed Rape): 100% | plant injury at 125 g/ha (oilseed rape; 125 g ai/ha, scale 0 to 100 (0 no effect, 100 complete control), read-out: Plant response rating, Oilseed Rape): 100% | plant injury at 250 g/ha (oilseed rape; 250 g ai/ha, scale 0 to 100 (0 no effect, 100 complete control), read-out: Plant response rating, Oilseed Rape): 100% | pest or weed control at 16 g/ha (windgrass; 16 g ai/ha, scale 0-100, read-out: Plant response rating, Windgrass): 5% | pest or weed control at 31 g/ha (windgrass; 31 g ai/ha, scale 0 to 100 (0 no effect, 100 complete control), read-out: Plant response rating, Windgrass): 10% | pest or weed control at 62 g/ha (windgrass; 62 g ai/ha, scale 0 to 100 (0 no effect, 100 complete control), read-out: Plant response rating, Windgrass): 10% | pest or weed control at 125 g/ha (windgrass; 125 g ai/ha, scale 0 to 100 (0 no effect, 100 complete control), read-out: Plant response rating, Windgrass): 10% | pest or weed control at 250 g/ha (windgrass; 250 g ai/ha, scale 0 to 100 (0 no effect, 100 complete control), read-out: Plant response rating, Windgrass): 10% | Cocklebur plant response rating (cocklebur): 0
